26 compounds from ChEMBL document CHEMBL4477255, “Charting the chemical space around the (iso)indoline scaffold, a comprehensive approach towards multitarget directed ligands” (Bioorg Med Chem Lett, 2016) can be followed below.

Assay type in all cases: cell-based
In experiment [1] the target is T1, 5-hydroxytryptamine receptor 6 (Homo sapiens, UniProt P50406). The experiment can be described thus: Displacement of [3H]LSD from human recombinant 5-HT6 receptor expressed in CHO-K1 cells incubated for 3 hrs by scintillation counting analysis.
T1 sequence (P50406 whole entry): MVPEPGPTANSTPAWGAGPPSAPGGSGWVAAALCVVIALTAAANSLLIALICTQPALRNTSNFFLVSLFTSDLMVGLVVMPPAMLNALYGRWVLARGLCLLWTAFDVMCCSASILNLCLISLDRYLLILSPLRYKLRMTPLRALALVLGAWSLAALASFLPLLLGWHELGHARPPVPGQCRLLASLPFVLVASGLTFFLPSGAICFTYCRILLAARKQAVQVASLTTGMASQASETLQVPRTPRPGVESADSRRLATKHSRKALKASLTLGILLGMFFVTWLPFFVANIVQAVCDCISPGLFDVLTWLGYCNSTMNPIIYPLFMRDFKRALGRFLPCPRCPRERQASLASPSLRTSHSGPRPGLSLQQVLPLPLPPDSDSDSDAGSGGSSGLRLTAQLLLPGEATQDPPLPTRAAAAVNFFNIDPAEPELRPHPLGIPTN
Experiment [2] deals with T1, 5-hydroxytryptamine receptor 6. Briefly: Displacement of [3H]LSD from human recombinant 5-HT6 receptor expressed in CHO-K1 cells at 1 uM incubated for 3 hrs by scintillation counting analysis.
For another experiment, the target named is Histamine H3 receptor (Homo sapiens, UniProt Q9Y5N1). Briefly: Displacement of N-alpha-[methyl-3H]methylhistamine dihydrochloride from human recombinant histamine H3 receptor expressed in CHO-K1 cells at 1 uM incubated for 30 mins by liquid scintillation counting analysis.
Sequence of Histamine H3 receptor (Q9Y5N1 whole entry): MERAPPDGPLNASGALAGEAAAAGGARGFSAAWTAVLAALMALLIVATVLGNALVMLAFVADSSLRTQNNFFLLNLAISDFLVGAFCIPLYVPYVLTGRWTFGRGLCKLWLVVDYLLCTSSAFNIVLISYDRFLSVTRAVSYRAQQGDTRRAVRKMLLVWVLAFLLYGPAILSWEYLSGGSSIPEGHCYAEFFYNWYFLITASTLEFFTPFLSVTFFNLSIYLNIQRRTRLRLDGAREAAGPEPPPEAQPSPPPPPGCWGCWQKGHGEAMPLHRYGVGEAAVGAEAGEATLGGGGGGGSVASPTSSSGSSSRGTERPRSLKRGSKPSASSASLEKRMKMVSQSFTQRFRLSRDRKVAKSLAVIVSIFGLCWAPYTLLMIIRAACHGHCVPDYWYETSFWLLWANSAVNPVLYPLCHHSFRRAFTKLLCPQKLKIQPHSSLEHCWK
For experiment [3], the target named is T2, D(3) dopamine receptor (Homo sapiens, UniProt P35462). The experiment can be described thus: Displacement of [3H]raclopride from human recombinant dopamine D3 receptor expressed in CHO-K1 cells at 1 uM incubated for 120 mins by liquid scintillation counting analysis. (In general: Loss of bound radioactivity is the signal in a displacement assay; it reports binding, not function.)
T2 sequence (P35462 whole entry): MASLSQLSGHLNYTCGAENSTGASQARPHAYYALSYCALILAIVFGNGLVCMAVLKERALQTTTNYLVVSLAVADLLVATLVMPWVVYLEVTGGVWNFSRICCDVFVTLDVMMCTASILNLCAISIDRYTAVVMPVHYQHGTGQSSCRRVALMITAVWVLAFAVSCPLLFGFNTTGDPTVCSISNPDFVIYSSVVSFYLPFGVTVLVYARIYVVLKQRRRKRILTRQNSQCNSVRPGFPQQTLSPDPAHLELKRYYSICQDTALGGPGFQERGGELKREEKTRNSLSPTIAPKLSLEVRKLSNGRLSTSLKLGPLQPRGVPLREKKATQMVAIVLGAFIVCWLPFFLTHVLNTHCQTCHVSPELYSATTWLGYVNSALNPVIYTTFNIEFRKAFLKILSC

Experiment [4] addresses T3, D(2) dopamine receptor (Homo sapiens, UniProt P14416). Briefly: Displacement of [3H]raclopride from human recombinant dopamine D2 long receptor expressed in CHO-K1 cells at 1 uM incubated for 120 mins by scintillation counting analysis.
The target of experiment [5] is T2, D(3) dopamine receptor. The experiment can be described thus: Displacement of [3H]raclopride from human recombinant dopamine D3 receptor expressed in CHO-K1 cells incubated for 120 mins by liquid scintillation counting analysis.
Experiment [6] has as its target T3, D(2) dopamine receptor. The experiment can be described thus: Displacement of [3H]raclopride from human recombinant dopamine D2 long receptor expressed in CHO-K1 cells incubated for 120 mins by scintillation counting analysis.

T3 sequence (P14416 whole entry): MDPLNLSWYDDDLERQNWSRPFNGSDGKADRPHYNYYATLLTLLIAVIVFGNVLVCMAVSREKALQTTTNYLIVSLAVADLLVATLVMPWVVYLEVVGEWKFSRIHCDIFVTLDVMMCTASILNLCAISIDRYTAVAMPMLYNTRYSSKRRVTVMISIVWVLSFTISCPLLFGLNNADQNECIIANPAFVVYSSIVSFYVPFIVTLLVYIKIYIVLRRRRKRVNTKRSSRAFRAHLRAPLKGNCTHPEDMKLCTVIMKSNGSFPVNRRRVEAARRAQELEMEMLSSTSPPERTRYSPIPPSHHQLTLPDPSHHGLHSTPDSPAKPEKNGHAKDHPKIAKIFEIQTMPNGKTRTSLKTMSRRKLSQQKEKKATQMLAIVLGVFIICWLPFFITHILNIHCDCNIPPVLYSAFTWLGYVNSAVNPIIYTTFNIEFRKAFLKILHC

Take `O=S(=O)(c1ccccc1)N1CCc2c(C3CCNCC3)cccc21`: in experiment [1], the Ki (in general, the dissociation constant of the complex between target and ligand, obtained from inhibition or displacement) amounted to 13 nM. For the same compound, the inhibition (commonly the drop in the measured response relative to a control, in per cent) is 83% in experiment [2], -5% at Histamine H3 receptor, 6% at D(3) dopamine receptor [3] and 10% on D(2) dopamine receptor [4].
For `O=S(=O)(c1ccccc1)N1CCc2c(N3CCNCC3)cccc21` the same measures were 118 nM, 97%, 3%, 40% and 22%.
Turning to `CCCN1CCC(c2cccc3c2CN(S(=O)(=O)c2ccccc2)C3)CC1`, the Ki in experiment [1] turned out to be 21 nM; on D(3) dopamine receptor [5] it was 212 nM. The inhibition in experiment [2] was 92%; on Histamine H3 receptor it was 4%; on D(3) dopamine receptor [3], 55%; on D(2) dopamine receptor [4] it was 40%.
For the compound `CN1CCN(c2ccc3c(c2)CCN3S(=O)(=O)c2ccccc2)CC1`, the Ki in experiment [1] was 440 nM; at D(3) dopamine receptor [5], 108 nM. Besides, the inhibition in experiment [2] was found to be 84%; at Histamine H3 receptor, 35%; at D(3) dopamine receptor [3], 85%; on D(2) dopamine receptor [4], 18%.
As to `CN1CCN(c2ccc3c(c2)CN(S(=O)(=O)c2ccccc2)C3)CC1`, the inhibition in experiment [2] worked out at 29%; at Histamine H3 receptor it was 21%; on D(3) dopamine receptor [3], 41%; on D(2) dopamine receptor [4], 11%.
Consider `CCCN1CCC(c2ccc3c(c2)CCN3S(=O)(=O)c2ccccc2)CC1`, for which the inhibition in experiment [2] was determined as 39%; at Histamine H3 receptor, 22%; at D(3) dopamine receptor [3], 79%; on D(2) dopamine receptor [4], 35%. Moreover, the Ki at D(3) dopamine receptor [5] was 227 nM.
`CCCN1CCN(c2ccc3c(c2)CCN3S(=O)(=O)c2ccccc2)CC1`: the inhibition was 38% in experiment [2], 39% on Histamine H3 receptor, 98% on D(3) dopamine receptor [3] and 59% on D(2) dopamine receptor [4]. Moreover, the Ki came to 245 nM at D(2) dopamine receptor [6] and 24 nM at D(3) dopamine receptor [5].
In the case of `O=S(=O)(c1ccccc1)N1Cc2ccc(C3CCNCC3)cc2C1`, in experiment [1], the Ki was 254 nM. In addition, the inhibition in experiment [2] was found to be 54%; on Histamine H3 receptor, 3%; at D(3) dopamine receptor [3], 3%; on D(2) dopamine receptor [4], 9%.
On to `O=S(=O)(c1ccccc1)N1Cc2cccc(C3CCN(C4CCC4)CC3)c2C1`, for which the Ki in experiment [1] came out at 42 nM; at D(2) dopamine receptor [6] it was 1830 nM. The inhibition in experiment [2] was 91%; at Histamine H3 receptor, 13%; on D(3) dopamine receptor [3], -5%; on D(2) dopamine receptor [4], 49%.
For the compound `O=S(=O)(c1ccccc1)N1Cc2ccc(N3CCNCC3)cc2C1`, the Ki in experiment [1] turned out to be 289 nM. In addition, the inhibition in experiment [2] came to 46%; on Histamine H3 receptor it was 7%; at D(3) dopamine receptor [3], 37%; on D(2) dopamine receptor [4] it was 14%.
On to `O=S(=O)(c1ccccc1)N1Cc2ccc(C3CCN(C4CCC4)CC3)cc2C1`, for which the inhibition in experiment [2] is -10%; at Histamine H3 receptor it was 28%; on D(3) dopamine receptor [3], 24%; at D(2) dopamine receptor [4], 25%.
On to `CN1CCC(c2cccc3c2CCN3S(=O)(=O)c2ccccc2)CC1`, for which the Ki in experiment [1] stood at 45 nM. In addition, the inhibition stood at 87% in experiment [2], 10% at Histamine H3 receptor, 13% at D(3) dopamine receptor [3] and 35% at D(2) dopamine receptor [4].
In the case of `O=S(=O)(c1ccccc1)N1CCc2cc(C3CCNCC3)ccc21`, the Ki in experiment [1] stood at 175 nM. In addition, the inhibition in experiment [2] was 74%; at Histamine H3 receptor it was 2%; at D(3) dopamine receptor [3], 20%; on D(2) dopamine receptor [4], 13%.
In the case of `CCCN1CCC(c2ccc3c(c2)CN(S(=O)(=O)c2ccccc2)C3)CC1`, the inhibition came out at 26% in experiment [2], 27% at Histamine H3 receptor, 48% on D(3) dopamine receptor [3] and 16% on D(2) dopamine receptor [4]. Also, the Ki on D(3) dopamine receptor [5] was 712 nM.
`O=S(=O)(c1ccccc1)N1CCc2cc(N3CCNCC3)ccc21`: the Ki in experiment [1] is 20 nM; on D(3) dopamine receptor [5], 133 nM. The inhibition came out at 90% in experiment [2], 4% on Histamine H3 receptor, 75% on D(3) dopamine receptor [3] and 18% on D(2) dopamine receptor [4].
As to `CN1CCC(c2ccc3c(c2)CN(S(=O)(=O)c2ccccc2)C3)CC1`, the Ki in experiment [1] came to 556 nM. Also, the inhibition in experiment [2] came to 56%; on Histamine H3 receptor it was 41%; at D(3) dopamine receptor [3] it was 34%; at D(2) dopamine receptor [4], 19%.
Take `CCCN1CCC(c2cccc3c2CCN3S(=O)(=O)c2ccccc2)CC1`: the figures for the Ki (in experiment [1]; at D(3) dopamine receptor [5]) were 1030 nM and 383 nM, respectively. Besides, the inhibition in experiment [2] was 45%; at Histamine H3 receptor it was -5%; at D(3) dopamine receptor [3], 56%; at D(2) dopamine receptor [4], 38%.
Turning to `CCCN1CCN(c2cccc3c2CN(S(=O)(=O)c2ccccc2)C3)CC1`, the figures for the Ki (in experiment [1]; at D(2) dopamine receptor [6]; on D(3) dopamine receptor [5]) were 4.6 nM, 180 nM and 27 nM, respectively. Moreover, the inhibition turned out to be 98% in experiment [2], 12% at Histamine H3 receptor, 97% on D(3) dopamine receptor [3] and 64% at D(2) dopamine receptor [4].
For `O=S(=O)(c1ccccc1)N1Cc2cccc(N3CCNCC3)c2C1`, the Ki in experiment [1] is 1.9 nM; on D(3) dopamine receptor [5], 505 nM. Further, the inhibition in experiment [2] amounted to 98%; on Histamine H3 receptor, 11%; on D(3) dopamine receptor [3], 61%; at D(2) dopamine receptor [4], 29%.
As to `O=S(=O)(c1ccccc1)N1Cc2cccc(N3CCN(C4CCC4)CC3)c2C1`, the Ki came out at 4.8 nM in experiment [1], 1590 nM at D(2) dopamine receptor [6] and 525 nM on D(3) dopamine receptor [5]. Further, the inhibition in experiment [2] stood at 98%; at Histamine H3 receptor, 16%; at D(3) dopamine receptor [3], 72%; on D(2) dopamine receptor [4] it was 47%.
In the case of `CCN1CCC(c2cccc3c2CN(S(=O)(=O)c2ccccc2)C3)CC1`, the Ki in experiment [1] amounted to 2.3 nM; at D(3) dopamine receptor [5] it was 562 nM. Further, the inhibition was 98% in experiment [2], 3% on Histamine H3 receptor, 53% at D(3) dopamine receptor [3] and 27% on D(2) dopamine receptor [4].
`O=S(=O)(c1ccccc1)N1CCc2cc(C3CCN(C4CCC4)CC3)ccc21`: the inhibition in experiment [2] is -9%; on Histamine H3 receptor, 11%; on D(3) dopamine receptor [3], 48%; on D(2) dopamine receptor [4], 22%. The Ki on D(3) dopamine receptor [5] was 1670 nM.
With `CCCN1CCN(c2ccc3c(c2)CN(S(=O)(=O)c2ccccc2)C3)CC1`, the inhibition on Histamine H3 receptor was 38%; at D(3) dopamine receptor [3], 85%; on D(2) dopamine receptor [4], 29%. In addition, the Ki on D(3) dopamine receptor [5] was found to be 103 nM.
`CCN1CCN(c2cccc3c2CN(S(=O)(=O)c2ccccc2)C3)CC1`: the inhibition constant Ki in experiment [1] is 28 nM; on D(2) dopamine receptor [6], 310 nM; on D(3) dopamine receptor [5], 73 nM. Moreover, the inhibition is 98% in experiment [2], 17% at Histamine H3 receptor, 92% at D(3) dopamine receptor [3] and 55% at D(2) dopamine receptor [4].
For the compound `O=S(=O)(c1ccccc1)N1CCc2cc(N3CCN(C4CCC4)CC3)ccc21`, the inhibition in experiment [2] stood at 28%; at Histamine H3 receptor it was 36%; on D(3) dopamine receptor [3] it was 68%; at D(2) dopamine receptor [4], 24%. Moreover, at D(3) dopamine receptor [5], the Ki came out at 208 nM.
Take `CN1CCN(c2cccc3c2CN(S(=O)(=O)c2ccccc2)C3)CC1`: the Ki came out at 2.6 nM in experiment [1] and 160 nM at D(3) dopamine receptor [5]. Moreover, the inhibition in experiment [2] is 100%; at Histamine H3 receptor it was 19%; on D(3) dopamine receptor [3], 85%; at D(2) dopamine receptor [4] it was 43%.
